Earlier results as cited in paper PMC8198792, “Prediction of Anticancer Peptides with High Efficacy and Low Toxicity by Hybrid Model Based on 3D Structure of Peptides” (International Journal of Molecular Sciences, 2021).
Where two headings read alike, the source gives them in different places.

Test system: cancer cell lines
Design: method as in 6 sources, ref CancerPPD [45] and SATPdb ||| ref CancerPPD/SATPdb ||| ref CancerPPD, SATPdb, Swissprot (PDB) ||| ref CancerPPD/SATPdb/Swissprot(PDB) ||| ref CancerPPD / SATPdb ||| ...
Settings: cited from earlier work
Excerpt: Supplement ijms-22-05630-s001.zip/ACPs(seguence).xlsx, sheet "D1" | column: Activity || Supplement ijms-22-05630-s001.zip/ACPs(seguence).xlsx, sheet "D2" | column: Activity || Supplement ijms-22-05630-s001.zip/ACPs(seguence).xlsx, sheet "D3" | column: Activity || (+ 2 further places)

[1] = ACPs dataset D3 (sheet "D3"), label 1 = ACP, 0 = non-ACP, ref CancerPPD/SATPdb
[2] = ACPs dataset D4 (sheet "D4"), label 1 = ACP, 0 = non-ACP, ref CancerPPD / SATPdb
[3] = ACPs dataset D5, sheet "D5", label 1 = ACP, 0 = non-ACP, ref CancerPPD [45] and SATPdb
[4] = ACPs dataset D1, 1 = ACP (positive), 0 = non-ACP (negative), label taken from databases, ref CancerPPD [45] and SATPdb
[5] = ACPs dataset D4 (sheet "D4"), label 1 = ACP, experimentally validated ACPs, ref CancerPPD [45] and SATPdb
[6] = ACPs dataset D5 (sheet "D5"), label 1 = ACP (positive set), sequences with CancerPPD/SATPdb ID, ref CancerPPD, SATPdb
[7] = ACPs dataset sheet D2, 1 = ACP (CancerPPD/SATPdb ID), 0 = non-ACP (Swissprot/PDB ID), ref CancerPPD, SATPdb, Swissprot (PDB)
[8] = ACPs dataset D2 (supplement ACPs(seguence).xlsx, sheet D2), dataset label 1/0 (ACP / non-ACP), entries identified by Swissprot(PDB ID), ref CancerPPD/SATPdb/Swissprot(PDB)
[9] = ACPs dataset D3 (supplement sheet "D3"), 1 = ACP, 0 = non-ACP, ref CancerPPD [45] and SATPdb
[10] = ACPs dataset D4 (sheet "D4"), label 1 = ACP (CancerPPD ID), 0 = non-ACP (non-anticancer AMP, SATPdb ID), ref CancerPPD [45] and SATPdb
[11] = ACPs dataset D5 (sheet "D5"), label 1 = ACP (positive set), 0 = non-ACP (negative set), ref CancerPPD [45] and SATPdb
[12] = ACPs dataset D1, label 1 = ACP, 0 = non-ACP (non-anticancer AMPs from SATPdb), ref CancerPPD/SATPdb

Substance: LKLGTLVNLAKKIL [satpdb13705]
- Activity [1]: 0
- Activity [2]: 0
- Activity [3]: 0

Substance: GTFPCGESCVFIPCLTSAIGCSCKSKVCYKN [compound 4418]
- Activity [4]: 1
- Activity [5]: 1
- Activity [6]: 1
- Activity [7]: 1

Substance: NPEDWFTPDTCAYGDSNTAWTTCTTPGQTCYTCCSSCFDVVGEQACQMSAQC [2KC6 NMR - A 1-52]
- Activity [8]: 0
- Activity [3]: 0

Substance: GPWERCTAQCGGGIQARRR [satpdb29089]
- Activity [4]: 1
- Activity [5]: 1
- Activity [6]: 1
- Activity [7]: 1

Substance: LNWGAVLKHVVK [satpdb11336]
- Activity [9]: 0
- Activity [2]: 0
- Activity [3]: 0

Substance: EYHLMNGANGYLTRVNGKTVYRVTKDPVSAVFGVISNCWGSAGAGFGPQH [satpdb10230]
- Activity [4]: 0
- Activity [10]: 0

Substance: GGLRSLGRKILRAWKKYGPIIVPIIRIG [compound 4394]
- Activity [4]: 1
- Activity [5]: 1
- Activity [6]: 1
- Activity [7]: 1

Substance: MKFYTIKLPKFLGGIVRAMLGSFRKD [2MVH NMR - A 1-26]
- Activity [11]: 0
- Activity [7]: 0

Substance: HRHQGPIFDTRPSPFNPNQPRPGPIY [satpdb10283]
- Activity [4]: 0
- Activity [10]: 0

Substance: GVGDLIRKAV SVIKNIV [6GS3 X-ray 1.45 A/B 1-17]
- Activity [11]: 0
- Activity [7]: 0

Substance: GILDSFKQFAKGVGKDLIKGAAQGVLSTMSCKLAKTC [satpdb11305]
- Activity [4]: 0
- Activity [10]: 0

Substance: GLFTLIKGAAKLIGKTVPKKQARLGMNLWLVKLPTNVKT [satpdb12795]
- Activity [12]: 0
- Activity [2]: 0

Substance: TEWTACSKSCGMGFSTRV [satpdb28517]
- Activity [4]: 1
- Activity [5]: 1
- Activity [6]: 1
- Activity [7]: 1

Substance: KWKSFLKTFKSLKKTVLHTlLKAISS [compound 3757]
- Activity [9]: 1
- Activity [10]: 1
- Activity [11]: 1

Substance: KWKLFKKIGIGKFLHSAKKF [compound 1204]
- Activity [9]: 1
- Activity [10]: 1
- Activity [11]: 1

Substance: GLFDVIKKVASVIKKL [compound 4084]
- Activity [9]: 1
- Activity [10]: 1
- Activity [11]: 1

Substance: WKSYVRRWRSR [satpdb10329]
- Activity [4]: 0
- Activity [10]: 0

Substance: MVQNDFVDSYDVTMLLQDDDGKQYYEYHKGLSLSDFEVLYGNTADEIIKLRLDKVL [2LE2 NMR - A/B 1-56]
- Activity [8]: 0
- Activity [3]: 0

Substance: SPWDIASVTAGGVQKRS [satpdb27667]
- Activity [4]: 1
- Activity [5]: 1
- Activity [6]: 1
- Activity [7]: 1

Substance: GGLKKLGKKLEGAGKRVFNAAEKALPVVAGAKALG [satpdb11024]
- Activity [4]: 0
- Activity [10]: 0

Substance: GSKKPVPIIYCNRRTGKCQRM [5XO4 NMR - A 1-21]
- Activity [11]: 0
- Activity [7]: 0

Substance: EGVRNHVTCRINRGFCVPIRCPGRTRQIGTCFGPRIKCCRSW [satpdb13124]
- Activity [12]: 0
- Activity [2]: 0

Substance: GIPCGESCVWIPCISAAIGCSCKNKVCYRN [satpdb12462]
- Activity [12]: 0
- Activity [10]: 0

Substance: CLGVGSCNDFAGCGYAIVCFW [satpdb11014]
- Activity [4]: 0
- Activity [10]: 0

Substance: SNASVWECCSTGSWVPFTCC [satpdb10213]
- Activity [4]: 0
- Activity [10]: 0

Substance: LCNERPSQTWSGNCGNTAHCDKQCQDWEKASHGACHKRENHWKCFCYFNC [1BK8 NMR - A 1-50]
- Activity [8]: 0
- Activity [11]: 0

Substance: KWKLF [compound 1209]
- Activity [9]: 1
- Activity [10]: 1
- Activity [11]: 1

Substance: KGRGKRRREKQRPCDKPRR [satpdb15140]
- Activity [4]: 1
- Activity [5]: 1
- Activity [6]: 1
- Activity [7]: 1

Substance: GECEQCFSDGGDCTTCFNNGTGPCANCLAGYPAGCSNSDCTAFLSQCYGGC [1HA8 NMR - A 1-51]
- Activity [8]: 0
- Activity [3]: 0

Substance: KWKSFlKTFKSlKKTVlHTlLKAISS [compound 3772]
- Activity [9]: 1
- Activity [10]: 1
- Activity [11]: 1

Substance: GFLSILKKVLP [satpdb11215]
- Activity [4]: 0
- Activity [10]: 0

Substance: MLQNSAVLLLLVISASA [satpdb10067]
- Activity [4]: 1
- Activity [5]: 1
- Activity [6]: 1
- Activity [7]: 1

Substance: GIACGESCVFLGCFIPGCSCKSKVCYFN [compound 4397]
- Activity [4]: 1
- Activity [5]: 1
- Activity [6]: 1
- Activity [7]: 1

Substance: KVMAHMK [satpdb14375]
- Activity [1]: 0
- Activity [2]: 0
- Activity [3]: 0

Substance: FFHHIFRGIVHVGKTIHRLVTG [compound 4437]
- Activity [4]: 1
- Activity [5]: 1
- Activity [6]: 1
- Activity [7]: 1

Substance: SILSTLKDVGISAIKNAGSGVLKTLLCKLNKNCEK [satpdb12439]
- Activity [12]: 0
- Activity [10]: 0

Substance: VVKCSYRLGSPDSQCN [satpdb13432]
- Activity [12]: 0
- Activity [2]: 0

Substance: KKLFKKilkYL [satpdb14386]
- Activity [1]: 0
- Activity [2]: 0
- Activity [3]: 0

Substance: HFLLTLVNLAKkIL [satpdb14808]
- Activity [1]: 0
- Activity [2]: 0
- Activity [3]: 0

Substance: IPCGESCVWIPCISGMFGCSCKDKVCYS [compound 4368]
- Activity [4]: 1
- Activity [5]: 1
- Activity [6]: 1
- Activity [7]: 1

Substance: GLFKVIKKVASVIGGL [compound 4147]
- Activity [9]: 1
- Activity [10]: 1
- Activity [11]: 1

Substance: EECGPNEVFNTCGSACAPTCAQPKTRICTMQCRIGCQCQEGFLRNGEGACVLPENC [1CCV NMR - A 1-56]
- Activity [8]: 0
- Activity [3]: 0

Substance: GASCGETCFTGICFTAGCSCNPWPTCTRN [compound 4369]
- Activity [4]: 1
- Activity [5]: 1
- Activity [6]: 1
- Activity [7]: 1

Substance: ANIKLSVQMKLFKRHLKWKIIVKLNDGRELSLDA [satpdb18078]
- Activity [4]: 1
- Activity [5]: 1
- Activity [6]: 1
- Activity [7]: 1

Substance: GFSPNLPGKGLRIS [satpdb13263]
- Activity [12]: 0
- Activity [2]: 0

Substance: GIIKKIIKKI [compound 2839]
- Activity [9]: 1
- Activity [10]: 1
- Activity [11]: 1

Substance: YRGGYTGPIPRPPPIGRPPLRLVVCACYRLS [satpdb12661]
- Activity [12]: 0
- Activity [10]: 0

Substance: FLPVIAGVAANFLPKLFCAISKKC [compound 4361]
- Activity [4]: 1
- Activity [5]: 1
- Activity [6]: 1
- Activity [7]: 1

Substance: DFKLFAVYIKYR [satpdb16901]
- Activity [4]: 1
- Activity [5]: 1
- Activity [6]: 1
- Activity [7]: 1

Substance: FLPKTLRKFFCRIRGGRCAVLNCLGKEEQIGRCSNSGRKCCRKKK [satpdb12338]
- Activity [12]: 0
- Activity [10]: 0

Substance: INWKKIAEVGGKILSS [satpdb11077]
- Activity [4]: 0
- Activity [10]: 0

Substance: CSTNTFSLSDYWGNKGNWCTATHECMSWCK [satpdb10487]
- Activity [4]: 0
- Activity [10]: 0

Substance: GIFLKVLGVGKKVLCGVSGLC [satpdb12520]
- Activity [12]: 0
- Activity [10]: 0

Substance: INGSLDKRLLPDVET [satpdb28594]
- Activity [4]: 1
- Activity [5]: 1
- Activity [6]: 1
- Activity [7]: 1

Substance: GLFDVIKKVASVIGGL [compound 1421]
- Activity [9]: 1
- Activity [10]: 1
- Activity [11]: 1

Substance: SWLSKTAKKLENSAKKRISEGIAIAIQGGPR [compound 1235]
- Activity [4]: 1
- Activity [5]: 1
- Activity [6]: 1
- Activity [7]: 1

Substance: ALWKTLLKKVLKA [satpdb12593]
- Activity [2]: 0
- Activity [3]: 0

Substance: LVRGCWTKSYPPKPCFVR [satpdb11395]
- Activity [12]: 0
- Activity [10]: 0

Substance: KNWKK-Aib-LKK-Aib-IK-Aib-VK [compound 3503]
- Activity [9]: 1
- Activity [10]: 1
- Activity [11]: 1

Substance: NHFTLKCPKTALTEPPTLAY [compound 3362]
- Activity [4]: 1
- Activity [5]: 1
- Activity [6]: 1
- Activity [7]: 1

Substance: AIGKFLHSAKKFGKAFVGEIMNS [compound 1041]
- Activity [9]: 1
- Activity [5]: 1
- Activity [6]: 1
